Experimental data from patent publication US7709482B2, “Polycyclic heteroaryl substituted triazoles useful as Axl inhibitors” (Rigel Pharmaceuticals, Inc., priority 2006, dated 2010).

Biological target: T1, Axl (Homo sapiens, UniProt P30530)
T1 construct: endogenous in cells; host or cells: HeLa cells
T1 sequence (P30530 26-894): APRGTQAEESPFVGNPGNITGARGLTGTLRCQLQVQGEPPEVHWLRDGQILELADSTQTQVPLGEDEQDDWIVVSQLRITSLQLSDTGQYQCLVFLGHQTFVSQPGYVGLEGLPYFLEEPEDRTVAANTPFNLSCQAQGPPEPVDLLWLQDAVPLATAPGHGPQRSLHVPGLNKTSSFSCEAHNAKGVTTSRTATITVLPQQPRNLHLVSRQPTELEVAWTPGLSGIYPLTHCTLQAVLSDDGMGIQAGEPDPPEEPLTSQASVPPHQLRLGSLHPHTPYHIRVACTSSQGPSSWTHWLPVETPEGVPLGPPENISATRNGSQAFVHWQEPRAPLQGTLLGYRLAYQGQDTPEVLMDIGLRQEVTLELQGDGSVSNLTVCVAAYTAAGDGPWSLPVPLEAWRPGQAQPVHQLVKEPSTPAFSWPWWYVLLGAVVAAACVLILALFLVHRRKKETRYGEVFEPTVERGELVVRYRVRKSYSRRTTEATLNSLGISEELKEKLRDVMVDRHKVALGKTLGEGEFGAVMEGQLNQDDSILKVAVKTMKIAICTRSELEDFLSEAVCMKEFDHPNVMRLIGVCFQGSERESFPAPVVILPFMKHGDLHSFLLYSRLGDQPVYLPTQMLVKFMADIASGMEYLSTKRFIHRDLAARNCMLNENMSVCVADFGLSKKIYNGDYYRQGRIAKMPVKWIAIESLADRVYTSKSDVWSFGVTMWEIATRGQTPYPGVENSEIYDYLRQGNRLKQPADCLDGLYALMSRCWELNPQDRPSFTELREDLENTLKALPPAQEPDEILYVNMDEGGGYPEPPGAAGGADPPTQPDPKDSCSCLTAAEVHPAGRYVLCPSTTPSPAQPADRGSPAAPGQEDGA
Assay: Phospho-Akt In-Cell Western Assay (inhibition of Axl activity after Axl-antibody cross-linking)
Format: cell-based
Details: Hela cells, phospho-Akt chemiluminescence normalized to relative cell number; compounds of formula (Ib), Table 2; read-out: IC50
How it was run: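 Phospho-Akt was detected in formaldehyde-fixed cells by in-cell immunostaining with HRP chemiluminescence. Before fixation, HeLa cells kept 24 h in low-serum medium containing 500 ng/mL Axl/Fc received compound for 1 h at 37 °C, followed by 5-min Axl activation through antibody clustering.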

`CC(C)N1CCN(Cc2ccc(Nc3nc(N)nn3-c3cc4c(nn3)-c3ccccc3CCC4)cc2)CC1` [Compound 167, 1-(6,7-dihydro-5H-benzo[6,7]cyclohepta[1,2-c]pyridazin-3-yl)-N^5-(4-((4-isopropylpiperazinyl)methyl)phenyl)-1H-1,2,4-triazole-3,5-diamine] and `Nc1nc(Nc2ccc(N3CC(N4CCCC4)C3)c(F)c2)n(-c2cc3c(nn2)-c2ccccc2CCC3)n1` [Compound 170, 1-(6,7-dihydro-5H-benzo[6,7]cyclohepta[1,2-c]pyridazin-3-yl)-N^5-(3-fluoro-4-(3-pyrrolidin-1-ylazetidinyl)phenyl)-1H-1,2,4-triazole-3,5-diamine] fall in the same range of IC50: 1000 to 10000 nM for the first, 1000 to 10000 nM for the second.

First: CN1CCC(N2CCN(c3ccc(Nc4nc(N)nn4-c4cc5c(nn4)-c4ccccc4CCC5)cc3F)CC2)CC1 [Compound 168, 1-(6,7-dihydro-5H-benzo[6,7]cyclohepta[1,2-c]pyridazin-3-yl)-N^5-(3-fluoro-4-(4-N-methylpiperid-4-ylpiperazinyl)phenyl)-1H-1,2,4-triazole-3,5-diamine]
Second: Cc1cc(Nc2nc(N)nn2-c2cc3c(nn2)-c2ccccc2CCC3)ccc1N1CCC(N2CCN(C)CC2)CC1 [Compound 171, 1-(6,7-dihydro-5H-benzo[6,7]cyclohepta[1,2-c]pyridazin-3-yl)-N^5-(3-methyl-4-(4-(N-methylpiperazin-4-yl)piperidin-1-yl)phenyl)-1H-1,2,4-triazole-3,5-diamine]
The IC50 of the first is lower: 1000 to 10000 nM for the first, > 20000 nM for the second. The first is the more potent here.

`CN1CCC2(CCN(c3ccc(Nc4nc(N)nn4-c4cc5c(nn4)-c4ccccc4CCC5)cc3F)C2)C1` (stereo not shown) [Compound 169, 1-(6,7-dihydro-5H-benzo[6,7]cyclohepta[1,2-c]pyridazin-3-yl)-N^5-(3-fluoro-4-(7-methyl-2,7-diazaspiro[4.4]nonan-2-yl)phenyl)-1H-1,2,4-triazole-3,5-diamine] and `Nc1nc(Nc2ccc(N3CCC(N4CCCC4)C3)c(F)c2)n(-c2cc3c(nn2)-c2ccccc2CCC3)n1` (stereo not shown) [Compound 174, 1-(6,7-dihydro-5H-benzo[6,7]cyclohepta[1,2-c]pyridazin-3-yl)-N^5-(3-fluoro-(4-(3-pyrrolidin-1-yl)pyrrolidin-1-yl)phenyl)-1H-1,2,4-triazole-3,5-diamine] fall in the same range of IC50: 1000 to 10000 nM for the first, 1000 to 10000 nM for the second.

First: Nc1nc(Nc2ccc(N3CCC(N4CCCC4)CC3)cc2)n(-c2cc3c(nn2)-c2ccccc2SCC3)n1 [Compound 172, 1-(6,7-dihydro-5H-benzo[2,3]thiepino[4,5-c]pyridazin-3-yl)-N^5-(4-(4-pyrrolidin-1-ylpiperidinyl)phenyl)-1H-1,2,4-triazole-3,5-diamine]
Second: Cc1cc(Nc2nc(N)nn2-c2cc3c(nn2)-c2ccccc2CCC3)cnc1N1CCC(N2CCCC2)CC1 [Compound 173, 1-(6,7-dihydro-5H-benzo[6,7]cyclohepta[1,2-c]pyridazin-3-yl)-N^5-(6-(4-(pyrrolidin-1-yl)piperidin-1-yl)-5-methylpyridin-3-yl)-1H-1,2,4-triazole-3,5-diamine]
The IC50 of the first is higher: > 20000 nM for the first, 1000 to 10000 nM for the second. The second is the more potent here.

Same assay, conditions: inhibition of Axl activity; Table 1, compounds of formula (Ia); read-out: IC50

Compared with `CN1CCN(C2CCN(c3ccc(Nc4nc(N)n(-c5cc6c(nn5)-c5ccccc5OC65CCCC5)n4)cc3F)CC2)CC1` [Compound 175, 1-(spiro[chromeno[4,3-c]pyridazine-5,1′-cyclopentane]-3-yl)-N^3-(3-fluoro-4-(4-(4-methylpiperazin-1-yl)piperidin-1-yl)phenyl)-1H-1,2,4-triazole-3,5-diamine], `Nc1nc(Nc2ccc(N3CCC(N4CCCC4)CC3)c(F)c2)nn1-c1cc2c(nn1)-c1ccccc1OC21CCCC1` [Compound 176, 1-(spiro[chromeno[4,3-c]pyridazine-5,1′-cyclopentane]-3-yl)-N^3-(3-fluoro-4-(4-(pyrrolidin-1-yl)piperidin-1-yl)phenyl)-1H-1,2,4-triazole-3,5-diamine] is lower in IC50: 10000 to 20000 nM for the first, 1000 to 10000 nM for the second.

`Nc1nc(Nc2ccc(N3CCC(N4CCCC4)CC3)c(F)c2)nn1-c1cc2c(nn1)-c1ccccc1CCC2` [Compound 177, 1-(6,7-dihydro-5H-benzo[6,7]cyclohepta[1,2-c]pyridazin-3-yl)-N^3-(3-fluoro-4-(4-pyrrolidin-1-ylpiperidin-1-yl)phenyl)-1H-1,2,4-triazole-3,5-diamine] and `Nc1nc(Nc2ccc(N3CCC(N4CCCC4)CC3)c(F)c2)nn1-c1cc2c(nn1)CCCc1ccccc1-2` [Compound 178, 1-(6,7-dihydro-5H-benzo[6,7]cyclohepta[4,5-c]pyridazin-2-yl)-N^3-(3-fluoro-4-(4-pyrrolidin-1-ylpiperidin-1-yl)phenyl)-1H-1,2,4-triazole-3,5-diamine] cannot be ordered by IC50: < 1000 nM for the first, < 1000 nM for the second.

`CN1CCN(C2CCN(c3ccc(Nc4nc(N)n(-c5cc6c(nn5)-c5ccccc5CCC6)n4)cc3F)CC2)CC1` [Compound 179, 1-(6,7-dihydro-5H-benzo[6,7]cyclohepta[1,2-c]pyridazin-3-yl)-N^3-(3-fluoro-4-(4-(4-methylpiperazin-1-yl)piperidin-1-yl)phenyl)-1H-1,2,4-triazole-3,5-diamine] and `CN(C)[C@@H]1CCN(c2ccc(Nc3nc(N)n(-c4cc5c(nn4)-c4ccccc4CCC5)n3)cc2F)C1` [Compound 180, 1-(6,7-dihydro-5H-benzo[6,7]cyclohepta[1,2-c]pyridazin-3-yl)-N^3-(3-fluoro-4-(3-(3R)-dimethylaminopyrrolidin-1-yl)phenyl)-1H-1,2,4-triazole-3,5-diamine] cannot be ordered by IC50: < 1000 nM for the first, < 1000 nM for the second.

`CCN(CC)C1CCc2ccc(Nc3nc(N)n(-c4cc5c(nn4)-c4ccccc4CCC5)n3)cc2CC1` (stereo not shown) [Compound 185, 1-(6,7-dihydro-5H-benzo[6,7]cyclohepta[1,2-c]pyridazin-3-yl)-N^3-(7-diethylamino-6,7,8,9-tetrahydro-5H-benzo[7]annulene-2-yl)-1H-1,2,4-triazole-3,5-diamine] and `Nc1nc(Nc2ccc3c(c2)CCC(NC2CCCC2)CC3)nn1-c1cc2c(nn1)-c1ccccc1CCC2` (stereo not shown) [Compound 186, 1-(6,7-dihydro-5H-benzo[6,7]cyclohepta[1,2-c]pyridazin-3-yl)-N^3-(7-cyclopentylamino-6,7,8,9-tetrahydro-5H-benzo[7]annulene-2-yl)-1H-1,2,4-triazole-3,5-diamine] cannot be ordered by IC50: < 1000 nM for the first, < 1000 nM for the second.

Compared with `Nc1nc(Nc2ccc(N3CCN(CC4CC4)CC3)nc2)nn1-c1cc2c(nn1)-c1ccccc1CCC2` [Compound 187, 1-(6,7-dihydro-5H-benzo[6,7]cyclohepta[1,2-c]pyridazin-3-yl)-N^3-(2-(4-cyclopropylmethylpiperazin-1-yl)pyridine-5-yl)-1H-1,2,4-triazole-3,5-diamine], `Nc1nc(Nc2cnc3c(c2)CC(N2CCCC2)CC3)nn1-c1cc2c(nn1)-c1ccccc1CCC2` (stereo not shown) [Compound 189, 1-(6,7-dihydro-5H-benzo[6,7]cyclohepta[1,2-c]pyridazin-3-yl)-N^3-(6-(pyrrolidin-1-yl)-5,6,7,8-tetrahydroquinolin-3-yl)-1H-1,2,4-triazole-3,5-diamine] is lower in IC50: 1000 to 10000 nM for the first, < 1000 nM for the second. The second is the more potent here.

In the case of `Nc1nc(Nc2cnc3c(c2)CN(C2CCCC2)CC3)nn1-c1cc2c(nn1)-c1ccccc1CCC2` [Compound 190, 1-(6,7-dihydro-5H-benzo[6,7]cyclohepta[1,2-c]pyridazin-3-yl)-N^3-(6-cyclopentyl-5,6,7,8-tetrahydro-1,6-naphthyridine-3-yl)-1H-1,2,4-triazole-3,5-diamine], the IC50 is reported as < 1000 nM.
